{"source": "patent US9357777B2", "about": "“Method for effective management of helicoverpa armigera” (priority 2012, dated 2016)", "biological_target": "T1, bovine trypsin (Bos taurus, UniProt P00760)", "T1 construct": "purchased Sigma-Aldrich", "T1 sequence (P00760 24-246)": "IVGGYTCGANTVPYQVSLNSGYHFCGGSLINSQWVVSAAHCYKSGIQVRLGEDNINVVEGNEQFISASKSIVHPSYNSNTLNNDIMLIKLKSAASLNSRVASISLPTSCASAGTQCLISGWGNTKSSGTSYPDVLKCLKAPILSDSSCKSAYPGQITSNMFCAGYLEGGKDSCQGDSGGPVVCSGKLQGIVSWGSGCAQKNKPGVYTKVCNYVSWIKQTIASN", "assay": "Inhibition kinetics with bovine trypsin (BApNA substrate)", "type": "biochemical", "experimental": "Michaelis-Menten constant (Km) for trypsin was calculated by using various concentrations of BApNA substrate (1 to 5 mM), and then plotting double reciprocal curve with 1/(v) and 1/[S]. The kinetic properties of IRDs were analysed over a range of concentration of inhibitors (1 μM to 1 mM). IC50 values for each inhibitor were calculated from the sigmoid curve indicating the best fit for the percentage inhibition data obtained. The values of Ki values for each inhibitor were calculated directly from IC50 values using Cheng-Prusoff's classical equation (Copeland et al., 1995).", "note": "Bridges are numbered along the chain shown (N, C = ends). Where no end group is shown, it is not given here."}
{"sequence": "QPICTNSSAGLKGCNYYNADGTFICEGESDPNHPKACPKNCDPNIAYSLC (disulfide 4-41, 14-50; cysteines drawn unpaired) [IRD-9]", "values": [{"measurement": "Ki", "setting": "calculated from IC50 by Cheng-Prusoff's equation, read-out: Inhibition constant (Ki)", "result": "~2.2", "unit": "µM"}, {"measurement": "IC50", "setting": "substrate BApNA 1 mM, FIG. 2C", "result": "~2.2", "unit": "µM"}]}
